From PubChem BioAssay (NCI)
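In this assay, cells in 96-well plates receive the compound at five concentrations for 48 hours. Endpoints are linearly interpolated between the surrounding concentrations. GI50 marks 50% less growth. TGI marks complete inhibition of growth.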

How the values were obtained:
Assay in all cases: NCI-60 cell line screen, 48 h
[1] = test system: UACC-62 melanoma
[2] = test system: NCI-H226 lung
[3] = test system: ACHN renal
[4] = test system: CAKI-1 renal
[5] = test system: NCI-H522 lung
[6] = test system: DU-145 prostate
[7] = test system: MDA-MB-435
[8] = test system: SNB-19 CNS
[9] = test system: SK-MEL-5 melanoma
[10] = test system: SK-MEL-2 melanoma

CCCCCCCCCCCCN=C(N)c1ccc(N2CCN(c3ccc(C(N)=NCCCCCCCCCCCC)cc3)CC2)cc1 was tested, and the GI50 [1] was 10.5 µM, the TGI [1] was 21.5 µM and the GI50 [2] was 12.9 µM. The TGI [2] was 29.9 µM, the GI50 [3] was 20.7 µM and the TGI [3] was greater than 50 µM. The GI50 [4] was 32.3 µM, the TGI [4] was greater than 50 µM and the GI50 [5] was 3.42 µM. For the same molecule, the TGI [5] was 31.2 µM, the GI50 [6] was 3.57 µM and the TGI [6] was 14.3 µM. It also gave a GI50 [7] of 9.4 µM, a TGI [7] of 19.4 µM and a GI50 [8] of 11 µM. The TGI [8] was 20.5 µM, the GI50 [9] was 10.5 µM and the TGI [9] was 21.1 µM. For the same molecule, the GI50 [10] was 17.5 µM and the TGI [10] was greater than 50 µM.
With CCCCCCCCCCNCCSS(=O)(=O)O the GI50 [1] was 1.42 µM, the TGI [1] was 3 µM and the GI50 [2] was 2.51 µM. The TGI [2] was 5.16 µM, the GI50 [3] was 10.1 µM and the TGI [3] was 25.4 µM. For the same molecule, the GI50 [4] was 14.5 µM, the TGI [4] was 33.3 µM and the GI50 [5] was 2.09 µM. For the same molecule, the TGI [5] was 4.31 µM, the GI50 [6] was 1.82 µM and the TGI [6] was 3.28 µM. The GI50 [7] was 1.14 µM, the TGI [7] was 2.91 µM and the GI50 [8] was 1.72 µM. The TGI [8] was 3.24 µM, the GI50 [9] was 2.14 µM and the TGI [9] was 5.59 µM. For the same molecule, the GI50 [10] was 2.4 µM and the TGI [10] was 6.63 µM.
C#C[C@@]1(O)[C@@H](CO)O[C@@H](n2cc(C(F)(F)F)c3c(N)ncnc32)[C@@H]1O gave a GI50 [1] of 0.707 µM, a TGI [1] of 2.63 µM and a GI50 [2] of 2.7 µM. For the same molecule, the TGI [2] was greater than 100 µM, the GI50 [3] was 0.831 µM and the TGI [3] was greater than 100 µM. For the same molecule, the GI50 [4] was 2.19 µM, the TGI [4] was greater than 100 µM and the GI50 [5] was 0.345 µM. It also gave a TGI [5] of 1.98 µM, a GI50 [6] of 0.433 µM and a TGI [6] greater than 100 µM. The GI50 [7] was 0.808 µM, the TGI [7] was 11.3 µM and the GI50 [8] was 1.53 µM. For the same molecule, the TGI [8] was greater than 100 µM, the GI50 [9] was 0.688 µM and the TGI [9] was 4.38 µM. For the same molecule, the GI50 [10] was 0.913 µM and the TGI [10] was 2.85 µM.
Work on COc1ccc(-c2cc(-c3ccc(Cl)cc3)nc(NCCCCNc3ccnc4cc(Cl)ccc34)n2)cc1 yielded a GI50 [1] of 17.8 µM, a TGI [1] of 35.8 µM and a GI50 [2] of 31.8 µM. The TGI [2] was greater than 100 µM, the GI50 [3] was 12.6 µM and the TGI [3] was 25.6 µM. For the same molecule, the GI50 [4] was 10.6 µM, the TGI [4] was 22.6 µM and the GI50 [5] was 3.65 µM. It also gave a TGI [5] of 14.6 µM, a GI50 [6] of 2.25 µM and a TGI [6] of 4.79 µM. For the same molecule, the GI50 [7] was 1.79 µM, the TGI [7] was 3.27 µM and the GI50 [8] was 11 µM. The TGI [8] was 25.7 µM, the GI50 [9] was 1.7 µM and the TGI [9] was 3.08 µM. The GI50 [10] was 20.3 µM and the TGI [10] was 52.8 µM.
With O=C1Cc2cc(CCn3cncn3)c(Cl)cc2N1 the GI50 [1] was 20.7 µM, the TGI [1] was greater than 100 µM and the GI50 [2] was greater than 100 µM. It also gave a TGI [2] greater than 100 µM, a GI50 [3] greater than 100 µM and a TGI [3] greater than 100 µM. For the same molecule, the GI50 [4] was 8.33 µM, the TGI [4] was greater than 100 µM and the GI50 [5] was 5.29 µM. The TGI [5] was greater than 100 µM, the GI50 [6] was greater than 100 µM and the TGI [6] was greater than 100 µM. It also gave a GI50 [7] of 3.22 µM, a TGI [7] greater than 100 µM and a GI50 [8] of 70.7 µM. It also gave a TGI [8] greater than 100 µM, a GI50 [9] of 10.1 µM and a TGI [9] greater than 100 µM. The GI50 [10] was 12.4 µM and the TGI [10] was greater than 100 µM.
With Oc1ccc(C(O)(c2ccccc2)c2ccccc2)c2ccccc12 the TGI [1] was 3.61 µM, the TGI [2] was 9.8 µM and the TGI [3] was 3.73 µM. The TGI [4] was 11.1 µM, the TGI [5] was 7.17 µM and the TGI [6] was 14 µM. The TGI [7] was 6.01 µM, the TGI [8] was 19.8 µM and the TGI [9] was 14.6 µM. For the same molecule, the TGI [10] was 7.25 µM.
Molecule NC(Cc1c[nH]c2ccc([N+](=O)[O-])cc12)C(=O)O (stereo not given) has a TGI [1] greater than 100 µM, a TGI [2] greater than 100 µM and a TGI [3] greater than 100 µM. The TGI [4] was greater than 100 µM, the TGI [5] was greater than 100 µM and the TGI [6] was greater than 100 µM. The TGI [7] was greater than 100 µM, the TGI [8] was greater than 100 µM and the TGI [9] was greater than 100 µM. The TGI [10] was greater than 100 µM.
